From PMC9490236, “Accurate de novo design of membrane-traversing macrocycles” (Cell, 2022)
Where a SMILES comes first, the peptide text is derived from it. [ ]: non-standard residue; d: D form. NMeF = CN[C@@H](Cc1ccccc1)C(=O)O; NMeL = CN[C@@H](CC(C)C)C(=O)O; dNMeL = CN[C@H](CC(C)C)C(=O)O; dNMeV = CN[C@@H](C(=O)O)C(C)C; NMeM = CN[C@@H](CCSC)C(=O)O; NMeV = CN[C@H](C(=O)O)C(C)C; NMeA = CN[C@@H](C)C(=O)O; dNMeA = CN[C@H](C)C(=O)O

Columns and labels:
[1] = PAMPA
in vitro = details: PAMPA, PAMPA_Papp_Avg

Structure (SMILES) | PAMPA_R1 [1] | PAMPA_R3 [1] | Papp (in vitro)
CC[C@H](C)[C@@H]1NC(=O)[C@@H](CC(C)C)NC(=O)[C@@H]2CCCN2C(=O)[C@@H]2CCCN2C(=O)[C@@H](CC(C)C)NC(=O)[C@@H]2CCCN2C(=O)[C@H]2CCCN2C(=O)[C@@H](C(C)C)NC(=O)[C@@H](C)N(C)C1=O [Design D9.14, PRO DLEU ILE *DALA DVAL DPRO PRO DLEU PRO] (cyclo([dL]PP[dL]I[dNMeA][dV][dP]P)) | 6.02E-07 | 5.63E-07 | 0.584 ×10⁻⁶ cm/s
CC[C@H](C)[C@@H]1NC(=O)[C@@H](C)NC(=O)[C@@H]2CCCN2C(=O)[C@H]2CCCN2C(=O)[C@@H]2CCCN2C(=O)[C@@H](C)NC(=O)[C@@H](Cc2ccccc2)NC(=O)[C@@H](CC(C)C)N(C)C(=O)[C@@H](CC(C)C)N(C)C1=O [Design D9.15, PRO DPRO PRO DALA ILE *DLEU *DLEU DPHE DALA] (cyclo([dA]I[dNMeL][dNMeL][dF][dA]P[dP]P)) | 9.95E-07 | 6.20E-07 | 0.85 ×10⁻⁶ cm/s
CC(C)C[C@@H]1C(=O)N[C@H](C(C)C)C(=O)N(C)[C@@H](C(C)C)C(=O)N2CCC[C@H]2C(=O)N2CCC[C@@H]2C(=O)N[C@@H](C)C(=O)N(C)[C@@H](Cc2ccccc2)C(=O)N(C)[C@H](CC(C)C)C(=O)N[C@H](C)C(=O)N1C [Design D9.17, DPRO ALA *PHE *DLEU DALA *DLEU DVAL *VAL PRO] (cyclo(A[NMeF][dNMeL][dA][dNMeL][dV][NMeV]P[dP])) | 2.83E-06 | 4.13E-07 | 1.74 ×10⁻⁶ cm/s
CC(C)C[C@@H]1C(=O)N(C)[C@H](CC(C)C)C(=O)N2CCC[C@H]2C(=O)N[C@H](CC(C)C)C(=O)N2CCC[C@@H]2C(=O)N2CCC[C@@H]2C(=O)N(C)[C@H](CC(C)C)C(=O)N[C@H](Cc2ccccc2)C(=O)N[C@@H](C)C(=O)N1C [Design D9.18, ALA *DLEU *DLEU PRO DLEU DPRO DPRO *DLEU DPHE] (cyclo(A[dNMeL][dNMeL]P[dL][dP][dP][dNMeL][dF])) | 1.88E-06 | 1.97E-06 | 1.76 ×10⁻⁶ cm/s
CC(C)C[C@@H]1NC(=O)[C@@H](CC(C)C)NC(=O)[C@@H](CC(C)C)N(C)C(=O)[C@@H](CC(C)C)N(C)C(=O)[C@H](C(C)C)NC(=O)[C@@H](C)N(C)C(=O)[C@@H]2CCCN2C(=O)[C@@H]2CCCN2C(=O)[C@@H](C)N(C)C1=O [Design D9.19, PRO *DALA VAL *DLEU *DLEU DLEU LEU *DALA PRO] (cyclo(L[dNMeA]PP[dNMeA]V[dNMeL][dNMeL][dL])) | 1.47E-06 | 1.16E-06 | 1.28 ×10⁻⁶ cm/s
CC(C)C[C@@H]1NC(=O)[C@@H]2CCCN2C(=O)[C@H]2CCCN2C(=O)[C@@H](C)N(C)C(=O)[C@@H](CC(C)C)N(C)C(=O)[C@H](C(C)C)NC(=O)[C@@H](C)N(C)C(=O)[C@H]2CCCN2C(=O)[C@@H]2CCCN2C1=O [Design D9.22, DPRO *DALA VAL *DLEU *DALA DPRO PRO LEU PRO] (cyclo(LP[dP][dNMeA]V[dNMeL][dNMeA][dP]P)) | 1.87E-07 | 1.82E-07 | 0.189 ×10⁻⁶ cm/s
CC[C@@H](C)[C@H]1NC(=O)[C@@H](CC(C)C)NC(=O)[C@@H]2CCCN2C(=O)[C@H]2CCCN2C(=O)[C@@H](C(C)C)NC(=O)[C@H](C)NC(=O)[C@@H]2CCCN2C(=O)[C@@H]([C@H](C)CC)NC(=O)[C@@H](C)N(C)C1=O [Design D9.23, DILE *DALA DILE PRO ALA DVAL DPRO PRO DLEU] (cyclo([dL][dI][dNMeA][dI]PA[dV][dP]P)) | 1.37E-07 | 1.50E-07 | 0.141 ×10⁻⁶ cm/s
CSCC[C@H]1C(=O)N(C)[C@H](C)C(=O)N[C@H](CC(C)C)C(=O)N2CCC[C@@H]2C(=O)N2CCC[C@H]2C(=O)N[C@@H](CC(C)C)C(=O)N2CCC[C@H]2C(=O)N2CCC[C@@H]2C(=O)N[C@H](C(C)C)C(=O)N1C [Design D9.24, DPRO DVAL *MET *DALA DLEU DPRO PRO LEU PRO] (cyclo(LP[dP][dV][NMeM][dNMeA][dL][dP]P)) | 7.85E-08 | 8.51E-08 | 0.0869 ×10⁻⁶ cm/s
CC(C)C[C@@H]1C(=O)N[C@H](Cc2ccccc2)C(=O)N2CCC[C@@H]2C(=O)N2CCC[C@@H]2C(=O)N2CCC[C@H]2C(=O)N[C@H](C(C)C)C(=O)N(C)[C@@H](C)C(=O)N(C)[C@@H](C)C(=O)N(C)[C@H](CC(C)C)C(=O)N1C [Design D9.25, DVAL *ALA *ALA *DLEU *DLEU DPHE DPRO DPRO PRO] (cyclo([dV][NMeA][NMeA][dNMeL][dNMeL][dF][dP][dP]P)) | 2.32E-06 | 1.52E-06 | 2.19 ×10⁻⁶ cm/s
CC[C@@H](C)[C@H]1NC(=O)[C@H]2CCCN2C(=O)[C@@H](C)NC(=O)[C@@H](CC(C)C)N(C)C(=O)[C@H]([C@@H](C)CC)NC(=O)[C@@H](C(C)C)NC(=O)[C@@H](CC(C)C)N(C)C(=O)[C@@H]2CCCN2C(=O)[C@@H]2CCCN2C1=O [Design D9.26, DPRO DILE PRO PRO *DLEU DVAL ILE *DLEU DALA] (cyclo(I[dNMeL][dA][dP][dI]PP[dNMeL][dV])) | 2.58E-06 | 2.23E-06 | 2.32 ×10⁻⁶ cm/s
CC(C)C[C@@H]1NC(=O)[C@@H](C)N(C)C(=O)[C@@H](CC(C)C)N(C)C(=O)[C@@H]2CCCN2C(=O)[C@H]2CCCN2C(=O)[C@@H](C)NC(=O)[C@@H]2CCCN2C(=O)[C@H]2CCCN2C(=O)[C@@H](CC(C)C)NC1=O [Design D9.27, DLEU DPRO PRO DALA DPRO PRO *DLEU *DALA LEU] (cyclo([dA][dP]P[dNMeL][dNMeA]L[dL][dP]P)) | 3.26E-08 | 3.49E-08 | 0.0334 ×10⁻⁶ cm/s
CC(C)C[C@@H]1C(=O)N[C@H](C)C(=O)N[C@@H](C(C)C)C(=O)N2CCC[C@@H]2C(=O)N[C@H](C(C)C)C(=O)N2CCC[C@@H]2C(=O)N2CCC[C@H]2C(=O)N[C@H](C)C(=O)N(C)[C@H](CC(C)C)C(=O)N1C [Design D9.29, DVAL DPRO PRO DALA *DLEU *DLEU DALA VAL DPRO] (cyclo([dA][dNMeL][dNMeL][dA]V[dP][dV][dP]P)) | 1.96E-06 | 1.19E-06 | 1.51 ×10⁻⁶ cm/s
CC(C)C[C@@H]1NC(=O)[C@H](Cc2ccccc2)N(C)C(=O)[C@H]2CCCN2C(=O)[C@@H](CC(C)C)NC(=O)[C@@H](CC(C)C)NC(=O)[C@H](C)NC(=O)[C@H]2CCCN2C(=O)[C@@H]2CCCN2C(=O)[C@@H](C(C)C)NC1=O [Design D9.32, DPRO ALA DLEU DLEU DPRO *PHE LEU DVAL PRO] (cyclo(A[dL][dL][dP][NMeF]L[dV]P[dP])) | 2.62E-07 | 2.67E-07 | 0.24 ×10⁻⁶ cm/s
CC[C@H](C)[C@@H]1NC(=O)CNC(=O)[C@@H]2CCCN2C(=O)[C@H]2CCCN2C(=O)[C@H]([C@@H](C)CC)NC(=O)[C@@H](C)N(C)C(=O)[C@@H]2CCCN2C(=O)[C@H](C(C)C)NC(=O)[C@@H](CC(C)C)NC1=O [Design D9.33, DPRO PRO GLY ILE DLEU VAL PRO *DALA ILE] (cyclo(GI[dL]VP[dNMeA]I[dP]P)) | 2.73E-07 | 4.74E-07 | 0.317 ×10⁻⁶ cm/s
CC[C@H](C)[C@@H]1NC(=O)[C@H]2CCCN2C(=O)[C@H](CC(C)C)N(C)C(=O)[C@H](CC(C)C)NC(=O)[C@H](C(C)C)NC(=O)[C@@H]2CCCN2C(=O)[C@H](CC(C)C)N(C)C(=O)[C@H](C(C)C)NC(=O)[C@@H](C(C)C)NC1=O [Design D9.39, DVAL VAL *LEU PRO VAL LEU *LEU DPRO ILE] (cyclo(I[dV]V[NMeL]PVL[NMeL][dP])) | 5.51E-07 | 2.78E-07 | 0.466 ×10⁻⁶ cm/s
CC[C@@H](C)[C@H]1NC(=O)[C@H](Cc2ccccc2)NC(=O)[C@@H](C)NC(=O)[C@@H](CC(C)C)N(C)C(=O)[C@@H]2CCCN2C(=O)[C@H](C)NC(=O)[C@H]2CCCN2C(=O)[C@@H]2CCCN2C(=O)[C@@H](Cc2ccccc2)NC1=O [Design D9.41, PRO DPRO ALA PRO *DLEU DALA PHE DILE DPHE] (cyclo(AP[dNMeL][dA]F[dI][dF]P[dP])) | 3.56E-06 | 3.41E-06 | 3.48 ×10⁻⁶ cm/s
CC[C@H](C)[C@@H]1NC(=O)[C@H]2CCCN2C(=O)[C@@H]2CCCN2C(=O)[C@H](C(C)C)NC(=O)[C@@H](C(C)C)NC(=O)[C@H](Cc2ccccc2)N(C)C(=O)[C@H]2CCCN2C(=O)[C@@H](CC(C)C)N(C)C(=O)[C@@H](CC(C)C)NC1=O [Design D9.42, DPRO ILE DLEU *DLEU DPRO *PHE DVAL VAL PRO] (cyclo(I[dL][dNMeL][dP][NMeF][dV]VP[dP])) | 1.18E-06 | 1.07E-06 | 1.12 ×10⁻⁶ cm/s
CC(C)C[C@@H]1C(=O)N2CCC[C@@H]2C(=O)N(C)[C@@H](C(C)C)C(=O)N[C@@H](C(C)C)C(=O)N2CCC[C@H]2C(=O)N2CCC[C@@H]2C(=O)N[C@@H](C)C(=O)N[C@H](C(C)C)C(=O)N(C)[C@@H](CC(C)C)C(=O)N[C@@H](C)C(=O)N1C [Design D10.6, PRO DPRO ALA DVAL *LEU ALA *DLEU DPRO *VAL VAL] (cyclo(A[dNMeL][dP][NMeV]VP[dP]A[dV][NMeL])) | 1.62E-06 | 7.67E-07 | 1.22 ×10⁻⁶ cm/s
CC(C)C[C@@H]1NC(=O)[C@@H](CC(C)C)NC(=O)[C@@H]2CCCN2C(=O)[C@@H](CC(C)C)NC(=O)[C@H](C)N(C)C(=O)[C@H](C)NC(=O)[C@H](CC(C)C)N(C)C(=O)[C@@H]2CCCN2C(=O)[C@H](CC(C)C)NC(=O)[C@H](CC(C)C)N(C)C1=O [Design D10.16, DLEU LEU *LEU LEU PRO *LEU ALA *ALA DLEU PRO] (cyclo(A[NMeA][dL]P[dL]L[NMeL]LP[NMeL])) | 2.30E-06 | 2.32E-06 | 2.27 ×10⁻⁶ cm/s
CC(C)C[C@@H]1C(=O)N[C@H](C)C(=O)N2CCC[C@H]2C(=O)N(C)[C@H](CC(C)C)C(=O)N[C@@H](C)C(=O)N(C)[C@@H](CC(C)C)C(=O)N(C)[C@H](C(C)C)C(=O)N[C@H](Cc2ccccc2)C(=O)N2CCC[C@@H]2C(=O)N2CCC[C@H]2C(=O)N1C [Design D10.18, DPRO PRO *DLEU DALA PRO *DLEU ALA *LEU *DVAL DPHE] (cyclo([dNMeL][dA]P[dNMeL]A[NMeL][dNMeV][dF][dP]P)) | 9.23E-08 | 1.49E-07 | 0.0948 ×10⁻⁶ cm/s
